# Results taken from US9718781B2, “Methods and compounds for treating proliferative disorders and viral infections” (University College Dublin, National University of Ireland, …, priority 2012, dated 2017).
# Read-outs that look alike come from different tables or passages of the source.
# Tests used:
# TPα = target: T1, TPα (Homo sapiens, UniProt P21731); experiment: U46619-induced [Ca2+]i mobilization in HEK.TPα cells; assay type: cell-based; settings: for remaining activity at 1 µM: antagonist 1 μM, read-out: Percentage of Control, TPα, 1 μM; for remaining activity at 1 µM / remaining activity at 10 µM: % of agonist-induced response in vehicle-treated cells; for remaining activity at 10 µM: antagonist 10 μM, read-out: Percentage of Control, TPα, 10 μM
# T1 construct: expressed in transfected cells
# T1 sequence (P21731 1-343): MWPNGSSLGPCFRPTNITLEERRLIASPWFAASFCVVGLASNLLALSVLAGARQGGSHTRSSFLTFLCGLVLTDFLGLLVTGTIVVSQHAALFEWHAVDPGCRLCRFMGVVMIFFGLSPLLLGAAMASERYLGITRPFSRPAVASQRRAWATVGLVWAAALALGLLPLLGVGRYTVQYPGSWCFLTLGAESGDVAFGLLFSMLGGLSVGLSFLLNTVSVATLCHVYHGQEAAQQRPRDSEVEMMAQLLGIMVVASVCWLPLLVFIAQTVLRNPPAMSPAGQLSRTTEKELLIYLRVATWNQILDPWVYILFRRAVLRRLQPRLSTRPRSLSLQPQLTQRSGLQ
# Outline: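 HEK293 cells loaded with 3 μM Fluo-4 (1 h, 25° C.) in Krebs-HEPES pH 7.4, then pre-incubated with compound for 10 min. Fluorescence at 520 nm tracked after injection of 1 μM U46619. Signal calibrated by Fmax (2% Triton X100) and Fmin (1 mM EGTA).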
# [1] = tested on: MDA-MB-231-2003 breast cancer cells; experiment: Experimental metastasis breast tumor xenograft model in SCID mice; assay type: in vivo; settings: 360 μg/kg i.p. 24 hr and 4 hr before tumor cell injection
# Method: An anticancer agent including a compound represented by formula X (hereinafter “X”) was evaluated for the ability to inhibit tumor growth and experimental metastasis in a breast tumor xenograft model in immunocompromised (SCID) mice.
# MDA-MB-231-2003 breast cancer cells (1×10^6 in 0.1 ml PBS) were injected into the lateral tail vein of female SCID mice and the ability of X to inhibit metastasis to the lung was investigated (n=5 for the test X treated-mice or n=4 for the control PBS-treated mice). Mice were initially treated via intraperitoneal (i.p.) injection with either X (360 μg/kg; ˜5 μM final concentration in blood; the “test” mice) or with PBS (the “control” mice) some 24 hr. before tumor cell injection. A second injection (i.p.) was given at the same dosage of X (360 μg/kg) at 4 hr. before tumor cell injection to the test mice while the control mice received an equivalent volume of PBS before tumor cell injection. […] Thereafter, all mice were monitored by image analysis (IVIS® imaging system) every two weeks for tumor cells in their lungs and were sacrificed at day 28 post tumor cell injection.
# [2] = side-by-side comparison, n=5, Table 2.6, read-out: IC50 values for inhibition of U46619-mediated [Ca2+]i, TPα
SMILES,remaining activity at 1 µM (TPα; 1 μM U46619) [%],remaining activity at 10 µM (TPα; 1 μM U46619) [%],IC50 (TPα; [2]) [nM],lung tumor development ([1]; day 28),mice surviving to the end of the experiment (day 28) ([1]; n=5),"IC50 (TPα; HEK.TPα cells, 1 μM U46619, Table 2, read-out: IC50 data for U46619-mediated [Ca2+]i mobilization, TPα) [nM]",TPα:TPβ Selectivity Ratio (TPα; IC50 TPα/IC50 TPβ)
"COc1ccc(-c2cccc(Oc3ccc(C#N)cc3S(=O)(=O)NC(=O)NC(C)(C)C)c2)cc1 [NTP4, N-(tert-butylcarbamoyl)-5-cyano-2-((4′-methoxy-[1,1′-biphenyl]-3-yl)oxy)benzenesulfonamide]",46.1 ± 3.87,19.9 ± 2.13,593 ± 83.6,,,,
"COc1ccc(-c2cccc(Oc3ccc([N+](=O)[O-])cc3S(=O)(=O)NC(=O)NC(C)(C)C)c2)cc1 [TP20, N-(tert-butylcarbamoyl)-2-((4′-methoxy-[1,1′-biphenyl]-3-yl)oxy)-5-nitrobenzene-sulfonamide]",45.4 ± 4.07,17.1 ± 2.46,240 ± 29.8,did not develop any tumors,5,119,16.2
